The text below walks through data of paper PMC11995724, “Antibiotic target discovery by integrated phenotypic and activity-based profiling of electrophilic fragments” (Cell chemical biology, 2025).

A short description of this data set: in vitro. Particulars: human, hek293t cells.
The viability is a read-out of living cells in per cent, often relative to untreated cells. Consider `C=CC(=O)N1CCC(c2nc(C)no2)CC1` [3-E05, 1-[4-(3-methyl-1,2,4-oxadiazol-5-yl)piperidin-1-yl]prop-2-en-1-one], for which the viability at 48 h, 25 µM was 49.7%.

As for `CC1CCCN(C(=O)C(NC(=O)C(C)Cl)c2cnn(C)c2)C1` (stereo not shown) [7-G12, 2-chloro-N-[1-(1-methyl-1H-pyrazol-4-yl)-2-(3-methylpiperidin-1-yl)-2-oxoethyl]propanamide], the viability at 48 h, 25 µM came to 81.1%.

Take `CCn1c2ccccc2c2cc(NC(=O)CCl)ccc21` [4-D06, 2-chloro-N-(9-ethyl-9H-carbazol-3-yl)acetamide]: the viability at 48 h, 25 µM came to 9.48%.

With `CCn1cc(S(=O)(=O)N2CCSSCC2)cn1` [10-N19, 5-[(1-ethyl-1H-pyrazol-4-yl)sulfonyl]-1,2,5-dithiazepane], the viability at 48 h, 25 µM is 109%.

As for `N#CC(=Cc1cnc2ccc(C#N)cn12)C(=O)Nc1ccc(F)cc1` [9-E20, 2-cyano-3-{6-cyanoimidazo[1,2-a]pyridin-3-yl}-N-(4-fluorophenyl)prop-2-enamide], the viability at 48 h, 25 µM was found to be 99.4%.

`Cc1ccc(CNC(=O)C(C)Cl)c2ccccc12` (stereo not shown) [7-O10, 2-chloro-N-[(4-methylnaphthalen-1-yl)methyl]propanamide]: the viability at 48 h, 25 µM was determined as 88.6%.

With `Cc1cc(CN(Cc2ccn(C)n2)C(=O)CCl)ccc1F` [5-G14, 2-chloro-N-[(4-fluoro-3-methylphenyl)methyl]-N-[(1-methyl-1H-pyrazol-3-yl)methyl]acetamide], the viability at 48 h, 25 µM came out at 0.658%.

In the case of `N#CC(=Cc1ccc(C#N)cc1)C(=O)N1CCCC1` [9-P21, 4-[2-cyano-2-(pyrrolidine-1-carbonyl)eth-1-en-1-yl]benzonitrile], the viability at 48 h, 25 µM stood at 117%.

In the case of `N#CC(=Cc1ccc(Cl)cc1Cl)C(=O)Nc1ccncc1` [8-M22, 2-cyano-3-(2,4-dichlorophenyl)-N-(pyridin-4-yl)prop-2-enamide], the viability at 48 h, 25 µM worked out at 67%.

As to `C=CC(=O)Nc1ccc(C(=O)Nc2ccc(N3CCOCC3)nc2)cc1` [1-K15, N-[6-(morpholin-4-yl)pyridin-3-yl]-4-(prop-2-enamido)benzamide], the viability at 48 h, 25 µM stood at 1.79%.

Regarding `COCC(NC(=O)C(C)Cl)c1ccccn1` (stereo not shown) [6-B13, 2-chloro-N-[2-methoxy-1-(pyridin-2-yl)ethyl]propanamide], the viability at 48 h, 25 µM turned out to be 106%.

Turning to `Cc1cc(C)n(CCCNC(=O)C(C)Cl)n1` (stereo not shown) [7-O19, 2-chloro-N-[3-(3,5-dimethyl-1H-pyrazol-1-yl)propyl]propanamide], the viability at 48 h, 25 µM amounted to 78.1%.

With `O=C(CCl)Cc1cc(Cl)cc(Cl)c1` [10-I15, 1-chloro-3-(3,5-dichlorophenyl)propan-2-one], the viability at 48 h, 25 µM was 3.97%.

As to `C=CC(=O)NCCCn1ccnc1C#N` [2-N05, N-[3-(2-cyano-1H-imidazol-1-yl)propyl]prop-2-enamide], the viability at 48 h, 25 µM came to 76.3%.

Take `C=CC(=O)N1CCC[C@H]1Cn1cc(C2CC2)nn1` [1-L18, 1-[(2S)-2-[(4-cyclopropyl-1H-1,2,3-triazol-1-yl)methyl]pyrrolidin-1-yl]prop-2-en-1-one]: the viability at 48 h, 25 µM worked out at 92.2%.

As for `C=CC(=O)N(Cc1cc(Cl)ccc1OC)C1CCCOCC1` (stereo not shown) [2-C07, N-[(5-chloro-2-methoxyphenyl)methyl]-N-(oxepan-4-yl)prop-2-enamide], the viability at 48 h, 25 µM was determined as 95.3%.

For the compound `C=CC(=O)Nc1ccnc(OC)c1` [2-F21, N-(2-methoxypyridin-4-yl)prop-2-enamide], the viability at 48 h, 25 µM was found to be 1.66%.

For `C=CC(=O)N1CCCC(c2nc(N(C)C)no2)C1` (stereo not shown) [3-A13, 1-{3-[3-(dimethylamino)-1,2,4-oxadiazol-5-yl]piperidin-1-yl}prop-2-en-1-one], the viability at 48 h, 25 µM stood at 29.9%.

For `COc1ccc2cc(CN(C)C(=O)CCl)ccc2c1` [4-A19, 2-chloro-N-[(6-methoxynaphthalen-2-yl)methyl]-N-methylacetamide], the viability at 48 h, 25 µM was -0.134%.

On to `NS(=O)(=O)c1cccc2cc(NC(=O)CCl)ccc12` [5-K16, 2-chloro-N-(5-sulfamoylnaphthalen-2-yl)acetamide], for which the viability at 48 h, 25 µM was 1.61%.

Turning to `N#CC(=Cc1ccc(OC(F)F)c(Cl)c1)C(N)=O` [9-L12, 3-[3-chloro-4-(difluoromethoxy)phenyl]-2-cyanoprop-2-enamide], the viability at 48 h, 25 µM worked out at 106%.

On to `CC(Cl)C(=O)N1CCN(c2cc(-c3ccccc3F)n[nH]2)CC1` (stereo not shown) [6-N20, 2-chloro-1-{4-[3-(2-fluorophenyl)-1H-pyrazol-5-yl]piperazin-1-yl}propan-1-one], for which the viability at 48 h, 25 µM was 86.2%.

As to `Cn1nc(C(F)(F)F)cc1CN(C(=O)CCl)C1CCCC1` [5-C16, 2-chloro-N-cyclopentyl-N-{[1-methyl-3-(trifluoromethyl)-1H-pyrazol-5-yl]methyl}acetamide], the viability at 48 h, 25 µM came to 0.815%.

On to `CC1CCCCC1NC(=O)C(C#N)=CC=Cc1ccccc1[N+](=O)[O-]` (stereo not shown) [8-F12, 2-cyano-N-(2-methylcyclohexyl)-5-(2-nitrophenyl)penta-2,4-dienamide], for which the viability at 48 h, 25 µM amounted to 36%.

For the compound `CC1CN(S(=O)(=O)c2ccc(NC(=O)CCl)cc2)CC(C)O1` (stereo not shown) [5-O15, 2-chloro-N-{4-[(2,6-dimethylmorpholin-4-yl)sulfonyl]phenyl}acetamide], the viability at 48 h, 25 µM turned out to be 1.43%.

`C=CC(=O)Nc1cccc(-c2ccon2)c1` [3-L04, N-[3-(1,2-oxazol-3-yl)phenyl]prop-2-enamide]: the viability at 48 h, 25 µM came to 70.4%.

As for `O=C(CCl)N1N=C(C=Cc2ccco2)CC1c1ccco1` (stereo not shown) [4-M22, 2-chloro-1-[5-(furan-2-yl)-3-[2-(furan-2-yl)ethenyl]-4,5-dihydro-1H-pyrazol-1-yl]ethan-1-one], the viability at 48 h, 25 µM was -0.145%.

With `CC(Cl)C(=O)Nc1ccccc1-c1ccccc1` (stereo not shown) [4-G14, N-{[1,1'-biphenyl]-2-yl}-2-chloropropanamide], the viability at 48 h, 25 µM amounted to 69.4%.

Regarding `CC(C)Oc1ccccc1C=C(C#N)C(=O)Nc1ccc(Cl)cc1` [9-L20, N-(4-chlorophenyl)-2-cyano-3-[2-(propan-2-yloxy)phenyl]prop-2-enamide], the viability at 48 h, 25 µM worked out at 89.4%.

With `N#CC(=Cc1cnn(-c2ccc(Cl)cc2)c1)C(=O)NC1CCCC1` [8-M10, 3-[1-(4-chlorophenyl)-1H-pyrazol-4-yl]-2-cyano-N-cyclopentylprop-2-enamide], the viability at 48 h, 25 µM amounted to 83.3%.

Regarding `C=CC(=O)NCC(C)(C)c1coc(-c2ccccc2)n1` [3-A03, N-[2-methyl-2-(2-phenyl-1,3-oxazol-4-yl)propyl]prop-2-enamide], the viability at 48 h, 25 µM came out at 45.6%.

For the compound `C=CC(=O)NCc1ncoc1C(F)(F)F` [3-E18, N-{[5-(trifluoromethyl)-1,3-oxazol-4-yl]methyl}prop-2-enamide], the viability at 48 h, 25 µM came to 93.1%.

Regarding `COc1ccc(S(=O)(=O)N2CCOCC2)cc1NC(=O)CCl` [4-O04, 2-chloro-N-[2-methoxy-5-(morpholine-4-sulfonyl)phenyl]acetamide], the viability at 48 h, 25 µM came out at 1.63%.

As for `C=CC(=O)N1CCCC(Oc2ccnc(C(=O)NC)c2)C1` (stereo not shown) [2-L22, N-methyl-4-{[1-(prop-2-enoyl)piperidin-3-yl]oxy}pyridine-2-carboxamide], the viability at 48 h, 25 µM came out at 99.6%.

On to `CC1CSc2ccc(Cl)cc2N(C(=O)CCl)C1` (stereo not shown) [5-J05, 2-chloro-1-(7-chloro-3-methyl-2,3,4,5-tetrahydro-1,5-benzothiazepin-5-yl)ethan-1-one], for which the viability at 48 h, 25 µM was 1.21%.

On to `CSc1ccccc1NC(=O)C(C)Cl` (stereo not shown) [4-M12, 2-chloro-N-[2-(methylsulfanyl)phenyl]propanamide], for which the viability at 48 h, 25 µM was found to be 95.2%.

For the compound `C=CC(=O)N(CCC(N)=O)C1CCOc2ccccc21` (stereo not shown) [3-F13, N-(2-carbamoylethyl)-N-(3,4-dihydro-2H-1-benzopyran-4-yl)prop-2-enamide], the viability at 48 h, 25 µM came out at 69.2%.

Regarding `O=C(CCl)N(c1ccccc1)C1CCCCC1` [4-L18, 2-chloro-N-cyclohexyl-N-phenylacetamide], the viability at 48 h, 25 µM was determined as 0.523%.

On to `C=CC(=O)N(Cc1cnn(C2CCC2)c1)C1CCCc2occc21` (stereo not shown) [2-G07, N-[(1-cyclobutyl-1H-pyrazol-4-yl)methyl]-N-(4,5,6,7-tetrahydro-1-benzofuran-4-yl)prop-2-enamide], for which the viability at 48 h, 25 µM came to 103%.

As to `C=CC(=O)NCc1ccccc1-n1nc(C)cc1C` [3-P19, N-{[2-(3,5-dimethyl-1H-pyrazol-1-yl)phenyl]methyl}prop-2-enamide], the viability at 48 h, 25 µM was 59.1%.

For the compound `CC(Cl)C(=O)NC(=O)NCc1ccccc1` (stereo not shown) [6-P06, 1-benzyl-3-(2-chloropropanoyl)urea], the viability at 48 h, 25 µM stood at 123%.

For `CC(Cl)C(=O)c1c(N)n(C)c(=O)n(C)c1=O` (stereo not shown) [10-F22, 6-amino-5-(2-chloropropanoyl)-1,3-dimethyl-1,2,3,4-tetrahydropyrimidine-2,4-dione], the viability at 48 h, 25 µM amounted to 87.8%.

Take `Cc1ccc(S(=O)(=O)NC2CN(C(=O)CCl)C2)cc1` [5-E07, N-[1-(2-chloroacetyl)azetidin-3-yl]-4-methylbenzene-1-sulfonamide]: the viability at 48 h, 25 µM was determined as 0.324%.

For the compound `Cc1ccc(NC(=O)CCl)c([N+](=O)[O-])c1` [4-A07, 2-chloro-N-(4-methyl-2-nitrophenyl)acetamide], the viability at 48 h, 25 µM worked out at 2.99%.

On to `C=CC(=O)N1CCC(CC(C)(C)C)C1` (stereo not shown) [2-O19, 1-[3-(2,2-dimethylpropyl)pyrrolidin-1-yl]prop-2-en-1-one], for which the viability at 48 h, 25 µM was found to be 147%.

Turning to `C=CC(=O)N1CCC[C@H]1C(=O)Nc1cccc(C)n1` [1-B10, (2S)-N-(6-methylpyridin-2-yl)-1-(prop-2-enoyl)pyrrolidine-2-carboxamide], the viability at 48 h, 25 µM was found to be 77.1%.

For the compound `C=CC(=O)NCc1ccnc(N2CCOCC2)c1` [1-C09, N-{[2-(morpholin-4-yl)pyridin-4-yl]methyl}prop-2-enamide], the viability at 48 h, 25 µM stood at 70.7%.

As for `CNC(=O)C(C#N)=Cc1cc(C)n(-c2cccc3ccccc23)c1C` [9-P16, 2-cyano-3-[2,5-dimethyl-1-(naphthalen-1-yl)-1H-pyrrol-3-yl]-N-methylprop-2-enamide], the viability at 48 h, 25 µM turned out to be 109%.

As for `C=CC(=O)N1CC(C)(C)c2cc(Cl)ccc21` [1-L14, 1-(5-chloro-3,3-dimethyl-2,3-dihydro-1H-indol-1-yl)prop-2-en-1-one], the viability at 48 h, 25 µM amounted to 1.22%.
